Test results: the supplement of paper PMC8149375

Experiments:
Conditions in all cases: treatment: drug alone; 5 days
SN12C [1] = experiment: minimum viability across doses, drug alone, relative to DMSO (fraction); higher = less growth inhibition
Procedure: (§1)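 Primary HTS: 8 RCC cell lines treated with 8 doses (up to 10 uM) of each library drug alone for 5 days; viability read by CellTiter-Glo and normalised to DMSO. GI50 was fitted with XLfit (4-parameter), AUC is the area under the dose-response curve, and minimum viability is the lowest fraction of DMSO viability across doses.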

769-P [2] = experiment: as above
Procedure: as §1

786-O [3] = experiment: as above
Procedure: as §1

CAKI-1 [4] = experiment: as above
Procedure: as §1

TK-10 [5] = experiment: as above
Procedure: as §1

UO-31 [6] = experiment: as above
Procedure: as §1

ACHN [7] = experiment: as above
Procedure: as §1

A498 [8] = experiment: as above
Procedure: as §1

SN12C [9] = experiment: AUC of dose-response viability curve, drug alone (arbitrary (AUC of normalised viability)); higher = less growth inhibition
Procedure: as §1

769-P [10] = experiment: as above
Procedure: as §1

786-O [11] = experiment: as above
Procedure: as §1

CAKI-1 [12] = experiment: as above
Procedure: as §1

TK-10 [13] = experiment: as above
Procedure: as §1

UO-31 [14] = experiment: as above
Procedure: as §1

ACHN [15] = experiment: as above
Procedure: as §1

A498 [16] = experiment: as above
Procedure: as §1

SN12C [17] = experiment: GI50, drug alone; higher = less potent
Procedure: as §1

769-P [18] = experiment: GI50, drug alone; higher = less potent
Procedure: as §1

786-O [19] = experiment: GI50, drug alone; higher = less potent
Procedure: as §1

CAKI-1 [20] = experiment: GI50, drug alone; higher = less potent
Procedure: as §1

TK-10 [21] = experiment: GI50, drug alone; higher = less potent
Procedure: as §1

UO-31 [22] = experiment: GI50, drug alone; higher = less potent
Procedure: as §1

ACHN [23] = experiment: GI50, drug alone; higher = less potent
Procedure: as §1

A498 [24] = experiment: GI50, drug alone; higher = less potent
Procedure: as §1

Row | GI50, drug alone (786-O [19]) [µM] | GI50, drug alone (ACHN [23]) [µM] | SMILES | minimum viability across doses (SN12C [1]) | minimum viability across doses (769-P [2]) | minimum viability across doses (786-O [3]) | minimum viability across doses (CAKI-1 [4]) | minimum viability across doses (TK-10 [5]) | minimum viability across doses (UO-31 [6]) | minimum viability across doses (ACHN [7]) | minimum viability across doses (A498 [8]) | AUC of dose-response viability curve (SN12C [9]) | AUC of dose-response viability curve (769-P [10]) | AUC of dose-response viability curve (786-O [11]) | AUC of dose-response viability curve (CAKI-1 [12]) | AUC of dose-response viability curve (TK-10 [13]) | AUC of dose-response viability curve (UO-31 [14]) | AUC of dose-response viability curve (ACHN [15]) | AUC of dose-response viability curve (A498 [16]) | GI50, drug alone (SN12C [17]) [µM] | GI50, drug alone (769-P [18]) [µM] | GI50, drug alone (CAKI-1 [20]) [µM] | GI50, drug alone (TK-10 [21]) [µM] | GI50, drug alone (UO-31 [22]) [µM] | GI50, drug alone (A498 [24]) [µM]
1 | 1.36 | 3.48 | CC(C)(C)c1cc(NC(=O)Nc2ccc(-c3cn4c(n3)sc3cc(OCCN5CCOCC5)ccc34)cc2)no1 [Quizartinib (AC220)] | 0.819 | 0.234 | 0.129 | 0.408 | 0.612 | 1.16 | 0.381 | 1.07 | 3.25 | 2.98 | 2.76 | 2.38 | 2.84 | 5.25 | 2.72 | 4.53 | > 10 | 4.3 | 2.62 | > 10 | > 10 | > 10
2 | 1.59 | 1.42 | COc1cc(Nc2ncc(F)c(Nc3ccc4c(n3)NC(=O)C(C)(C)O4)n2)cc(OC)c1OC [R406(free base)] | 0.359 | 0.474 | 0.128 | 0.142 | 0.396 | 0.0454 | 0.306 | 1 | 2.79 | 3.13 | 2.21 | 2.61 | 2.44 | 4.5 | 2.35 | 4.42 | 3.89 | 9.62 | 1.26 | 4.07 | 8.51 | > 10
3 | 2.01 | 5.85 | COc1cc(Nc2ncc(F)c(Nc3ccc4c(n3)NC(=O)C(C)(C)O4)n2)cc(OC)c1OC.O=S(=O)(O)c1ccccc1 [R406] | 0.336 | 0.536 | 0.221 | 0.183 | 0.479 | 0.164 | 0.451 | 0.882 | 3.11 | 3.1 | 2.46 | 2.59 | 2.85 | 2.59 | 2.94 | 3.57 | 4.6 | > 10 | 1.33 | 9.02 | 8.77 | > 10

Further lines, the compound ahead of its results:

Row | SMILES | GI50, drug alone (786-O [19]) [µM] | GI50, drug alone (ACHN [23]) [µM] | minimum viability across doses (SN12C [1]) | minimum viability across doses (769-P [2]) | minimum viability across doses (786-O [3]) | minimum viability across doses (CAKI-1 [4]) | minimum viability across doses (TK-10 [5]) | minimum viability across doses (UO-31 [6]) | minimum viability across doses (ACHN [7]) | minimum viability across doses (A498 [8]) | AUC of dose-response viability curve (SN12C [9]) | AUC of dose-response viability curve (769-P [10]) | AUC of dose-response viability curve (786-O [11]) | AUC of dose-response viability curve (CAKI-1 [12]) | AUC of dose-response viability curve (TK-10 [13]) | AUC of dose-response viability curve (UO-31 [14]) | AUC of dose-response viability curve (ACHN [15]) | AUC of dose-response viability curve (A498 [16]) | GI50, drug alone (SN12C [17]) [µM] | GI50, drug alone (769-P [18]) [µM] | GI50, drug alone (CAKI-1 [20]) [µM] | GI50, drug alone (TK-10 [21]) [µM] | GI50, drug alone (UO-31 [22]) [µM] | GI50, drug alone (A498 [24]) [µM]
4 | CCOc1cc2ncc(C#N)c(Nc3ccc(F)c(Cl)c3)c2cc1NC(=O)/C=C/CN(C)C [Pelitinib (EKB-569)] | 0.589 | 0.0629 | 0.0102 | 0.0352 | 0.00469 | 0.0302 | 0.01 | 0.027 | 0.00498 | 0.0185 | 2.38 | 2.02 | 2.08 | 1.87 | 1.75 | 3.24 | 1.41 | 2.96 | 0.995 | 0.357 | 0.209 | 0.161 | 1.08 | 2.19
5 | Cl.N=C(N)NC(=N)NCCc1ccccc1 [Phenformin hydrochloride] | 1.5 | > 10 | 0.0912 | 0.841 | 0.116 | 0.821 | 0.333 | 0.0295 | 0.682 | 0.514 | 2.87 | 3.29 | 2.31 | 3.22 | 2.95 | 3.11 | 3.53 | 3.42 | 5.25 | > 10 | > 10 | 6.89 | 3.09 | > 10
6 | Oc1cc(O)cc(/C=C/c2ccc(O)c(O)c2)c1 [Piceatannol] | 2.37 | > 10 | 0.712 | 0.849 | 0.383 | 0.33 | 0.685 | 0.908 | 0.67 | 1.05 | 3.18 | 2.35 | 2.54 | 3.58 | 3.2 | 5.06 | 3.28 | 4.25 | > 10 | > 10 | 7.74 | > 10 | > 10 | > 10
7 | Br.Cc1ccc(C(=O)Cn2c3c(sc2=N)CCCC3)cc1 [Pifithrin-α] | > 10 | > 10 | 0.76 | 0.918 | 0.385 | 0.871 | 0.636 | 0.864 | 0.743 | 0.946 | 3.09 | 3.5 | 1.95 | 3.26 | 2.84 | 3.69 | 3.14 | 4.11 | > 10 | > 10 | > 10 | > 10 | > 10 | > 10
8 | Nc1cccc2c1C(=O)N(C1CCC(=O)NC1=O)C2=O (stereo unspecified) [Pomalidomide] | 0.00888 | > 10 | 0.884 | 0.887 | 0.424 | 0.924 | 0.818 | 1.01 | 0.85 | 0.732 | 3.38 | 3.35 | 2 | 3.49 | 3.12 | 3.85 | 3.14 | 3.01 | > 10 | > 10 | > 10 | > 10 | > 10 | > 10
9 | O=c1c(O)c(-c2ccc(O)c(O)c2)oc2cc(O)cc(O)c12 [Quercetin (Sophoretin)] | > 10 | > 10 | 0.821 | 0.784 | 0.53 | 0.861 | 0.736 | 0.807 | 0.899 | 0.923 | 3.13 | 3.3 | 2.36 | 3.2 | 3.01 | 3.57 | 3.48 | 3.6 | > 10 | > 10 | > 10 | > 10 | > 10 | > 10
